Results published in US5482867A, “Spatially-addressable immobilization of anti-ligands on surfaces” (Affymax Technologies N.V., priority 1993, dated 1996).
Entries after “also recorded” stand apart in the source; their conditions may differ.

How the values were obtained:
[1] = Chromatographic (reverse-phase HPLC) evidence for photoremoval of the NVOC group in solution; type: physicochemical; conditions: 100 mM, two minutes, 1 watt/cm^2, 500 W Hg(Xe) arc lamp, 305 nm long pass filter; NVOC-biotin-ONP in acetonitrile, biotin in water
Description: The cuvette was irradiated for two minutes at a power of 1 watt/cm^2 with a 500 W Hg(Xe) arc lamp (Oriel #66142) having a 305 nm long pass filter (Oriel #51450). Illuminated and non-illuminated samples were then subjected to reverse-phase HPLC.

Avidin [2] = biological target: T1, Avidin (Streptomyces avidinii, UniProt P22629); conditions: SBS: Avidin; cited from earlier work
T1 sequence (P22629 25-183): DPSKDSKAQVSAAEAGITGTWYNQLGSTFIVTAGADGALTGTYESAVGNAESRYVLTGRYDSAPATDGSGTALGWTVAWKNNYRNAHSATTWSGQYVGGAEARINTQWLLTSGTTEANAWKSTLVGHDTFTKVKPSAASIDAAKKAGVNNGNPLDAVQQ

streptavidin [3] = biological target: T2, streptavidin (Streptomyces avidinii, UniProt P22629); test: Scanning fluorescence imaging of Fluorescein-Streptavidin binding to caged-biotin glass slides after photodeprotection; conditions: NPOC, caproic-propyl spacer
T2 construct: purchased Amersham
T2 sequence (P22629 25-183): as above
Experimental: Commercially available glass microscope slides were derivatized with N-BOC-aminopropyltriethoxy silane according to literature procedures (for example, see J. Chromatography, 1974, Vol. 97, p. 33). The slides were incubated in a solution of 20% trifluoroacetic acid in methylene chloride for 30 minutes to remove the BOC protecting group. After washing sequentially with methylene chloride, dimethylformamide, and ethanol, the slides were neutralized by immersing in a solution of 10% diisopropylethyl amine in methylene chloride for 30 minutes and further washed with methylene chloride.
N-BOC-6-aminocaproic acid was converted to the BOP-activated ester in preparation for reaction with the derivatized glass slide. […]
[…], as described in the Example I, was mounted on a custom flow cell and illuminated through a 500 μm×500 μm checkerboard-pattern mask (Photo Sciences Inc., Torrance, Calif.) using broad-band UV/blue light. The light source was a 500 W Mercury arc lamp (Oriel Model 87330) equipped with a 350 nm-450 nm dichroic reflector and produced actinic light having an intensity of 12 mW/cm^2 as measured through a 360 nm bandpass filter. […]

avidin or streptavidin = conditions: cited from earlier work
streptavidin [4] = biological target: T2, streptavidin; test: Scanning fluorescence imaging of Fluorescein-Biotin binding to streptavidin immobilized on a slide; conditions: 1 μM Fluorescein-Biotin, 20 minutes
Experimental: The microscope slide of Example I having NVOC-biotin covalently attached via a caproic-propyl spacer was illuminated and processed as in Example J, except that after preincubation with the PBS/BSA/Tween 20 solution, the surface was treated with 10 μg/ml solution of Streptavidin (in PBS/BSA/Tween 20) for 40 minutes at room temperature, followed by incubation with a 1 μM solution of Fluorescein-Biotin (5-(N-((5-(N-(6-(biotinoyl)amino) hexanoyl)amino)pentyl)thioureidyl)fluorescein, in PBS, pH 7.4) for 20 minutes. The resulting slide was then washed, dried, and examined using a scanning fluorescence microscope as described above.

Avidin [5] = biological target: T1, Avidin; test: Blocking of subsequent 3H-biotin binding in streptavidin-treated microtiter wells
Experimental: All procedures using NVOC-biotin-OMe were conducted in dim red light. NVOC-biotin-OMe was dissolved in dimethylformamide (DMF) to a concentration 1 mM and diluted to 100 μM with phosphate-buffered saline pH 7.4. In order to remove any contaminants having high affinity for avidin, 2 ml of the NVOC-biotin-OMe solution was mixed with 1 ml of packed streptavidin-Sepharose-4B resin (SIGMA) which had been washed thoroughly to remove any non-covalently bound avidin. After stirring for three hours, the resin was removed by centrifugation followed by filtration (0.2 micron nylon filter).
Microtiter wells (Beckman EIA plates) were treated for 1 hr with 200 μl of 0.5 μg/ml of streptavidin in 10 mM sodium bicarbonate buffer (pH 9.6). […] The wells were then washed with PBS/Tween 20 and incubated for 1 hr at room temperature with 200 μl of PBS containing ^3 H-biotin (30 Ci/mmol, New England Nuclear). The wells were then washed with PBS/Tween and treated for 30 minutes at room temperature with 200 μl of 10% trichloroacetic acid in water. The radioactivity in 100 μl was then determined by liquid scintillation counting.

## COc1cc(COC(=O)N2C(=O)N[C@@H]3[C@H](CCCCC(=O)Oc4ccc([N+](=O)[O-])cc4)SC[C@@H]32)c([N+](=O)[O-])cc1OC [NVOC-biotin-ONP, N-1'-(6-nitroveratryloxycarbonyl)-biotin para-nitrophenyl ester]
[1]
  result of illumination (HPLC): converted to biotin-ONP upon illumination; also recorded: converted to Biotin-ONP by the illumination

## N=C1NC2CSC(CCCCC(=O)O)C2N1 (stereo not drawn) [Iminobiotin]
Avidin [2]
  Affinity (Ka): 10^11 M^-1

## O=C(O)CCCC[C@@H]1SC[C@@H]2NC(=O)N[C@@H]21 [Biotin, reference compound]
[1]
  result of illumination (HPLC): unaffected by the illumination

## O=C(CCCC[C@@H]1SC[C@H]2[C@@H]1NC(=O)N2C(=O)OCc1cc2c(cc1[N+](=O)[O-])OCO2)Oc1ccc([N+](=O)[O-])cc1 [NPOC-biotin-ONP, N-1'-(6-nitropiperonyloxycarbonyl)-biotin para-nitrophenyl ester]
Streptavidin [3]
  streptavidin binding upon photodeprotection (fluorescence image): spatially-localized streptavidin binding

## COC(=O)CCCCC1SCC2NC(=O)N(C(=O)OC)C21 (stereo not drawn) [3'-N-methoxy-carbonylbiotin methyl ester]
Avidin [2]
  Affinity (Ka): 10^9 M^-1

## CN(CCCNC(=O)CCCC[C@@H]1SC[C@@H]2NC(=O)N[C@@H]21)CCCNc1ccc(N=[N+]=[N-])cc1[N+](=O)[O-] [photobiotin]
Avidin or streptavidin
  effect of carboxylate-terminus derivatization on binding to avidin or streptavidin: does not significantly reduce binding to avidin or streptavidin

## O=C(CCCCCNC(=O)CCCC[C@@H]1SC[C@@H]2NC(=O)N[C@@H]21)NCCCCCNC(=S)Nc1ccc2c(c1)C(=O)OC21c2ccc(O)cc2Oc2cc(O)ccc21 [Fluorescein-Biotin, 5-(N-((5-(N-(6-(biotinoyl)amino)hexanoyl)amino)pentyl)thioureidyl)fluorescein]
Streptavidin [4]
  binding of Fluorescein-Biotin to immobilized streptavidin (fluorescence image): high fluorescence intensity

## COC(=O)CCCC[C@@H]1SC[C@H]2[C@@H]1NC(=O)N2C(=O)OCc1cc(OC)c(OC)cc1[N+](=O)[O-] [NVOC-biotin-OMe, N-1'-(6-nitroveratryloxycarbonyl)-biotin methyl ester]
Avidin [5]; after illumination in solution
  affinity for avidin: high affinity
Avidin [5]; illuminated (IL caged biotin), compared with biotin
  effectiveness in blocking the subsequent binding of 3H-biotin: nearly as effective as biotin
Avidin [5]; non-illuminated, concentrations as high as 10^-5 M
  effect on the subsequent binding of 3H-biotin: no significant effect
Avidin [5]; prior to illumination
  affinity for avidin: low affinity; also recorded: very low affinity

## COC(=O)CCCCC1SCC2C1NC(=O)N2C(=O)OC (stereo not drawn) [1'-N-methoxy-carbonylbiotin methyl ester]
Avidin [2]
  Affinity (Ka): 10^7 M^-1
